In ChEMBL document CHEMBL1135760, “Anilinoquinazoline inhibitors of fructose 1,6-bisphosphatase bind at a novel allosteric site: synthesis, in vitro characterization, and X-ray crystallography” (J Med Chem, 2002) one finds IC50 data, which are given here for 38 compounds.

The experiment is described as follows: Inhibition of human recombinant wild type fructose-1,6-bisphosphatase (F16BP).

Some results are limits rather than exact numbers.

On to `Cc1nc(-c2cccc(Nc3ncnc4cc5ccccc5cc34)c2)cs1`, for which the concentration for half-maximal inhibition (IC50) is > 10000 nM.
For the compound `COc1cc2ncnc(Nc3cccc(-c4csc(C)n4)c3)c2cc1OC`, the IC50 worked out at 4400 nM.
For the compound `CCOc1cc2ncnc(Nc3cccc(-c4csc(NN)n4)c3)c2cc1OCC`, the IC50 amounted to 4500 nM.
To `CCOc1cc2nc(CC(C)C)nc(Nc3cccc(-c4csc(C)n4)c3)c2cc1OCC` belongs 1700 nM; to `CCOc1cc2ncnc(Nc3cccc(-c4ccccc4C)c3)c2cc1OCC`, > 10000 nM.
Under `CCOc1cc2nc(CN(C)C)nc(Nc3cccc(-c4csc(C(N)=O)n4)c3)c2cc1OCC` stands 2400 nM; under `CCOc1cc2nc(CN3CCCC3)nc(Nc3cccc(-c4csc(C)n4)c3)c2cc1OCC`, 6100 nM.
To `CCOc1cc2ncnc(Nc3cccc(-c4csc(C5CC5)n4)c3)c2cc1OCC` belongs 830 nM.
As for `CCOc1cc2nc(CN)nc(Nc3cccc(-c4csc(C)n4)c3)c2cc1OCC`, the IC50 is 1500 nM.
Turning to `CCOc1cc2ncnc(Nc3cc(-c4csc(C)n4)c(F)cc3F)c2cc1OCC`, the 50% inhibitory concentration (IC50) was > 10000 nM.
To `CCOc1cc2ncnc(Nc3cccc(-c4cccnc4)c3)c2cc1OCC` belongs 1400 nM; to `CCOc1cc2ncnc(Nc3cccc(-c4csc(OC)n4)c3)c2cc1OCC`, 780 nM; to `CCOc1cc2ncnc(Nc3ccc(Cl)c(-c4csc(C)n4)c3)c2cc1OCC`, 5300 nM.
To `CCCOc1cc2ncnc(Nc3cccc(-c4csc(C)n4)c3)c2cc1OCC` belongs 1000 nM; to `CCOc1cc2ncnc(Nc3cccc(-c4csc(C)n4)c3)c2cc1OC`, 3400 nM.
To `CCOc1cc2nc(CN(C)C)nc(Nc3cccc(-c4csc(C)n4)c3)c2cc1OCC` belongs 2000 nM; to `CCOc1cc2ncnc(Nc3cccc(-c4coc(C)n4)c3)c2cc1OCC`, 500 nM.
As for `CCOc1cc2nc(CC(C)C)nc(Nc3cccc(Br)c3)c2cc1OCC`, the IC50 is > 10000 nM.
Under `CCOc1cc2ncnc(Nc3cccc(C(C)=O)c3)c2cc1OCC` stands > 10000 nM; under `CCCc1nc(Nc2cccc(-c3csc(C)n3)c2)c2cc(OCC)c(OCC)cc2n1`, 1400 nM.
To `CCOc1cc2ncnc(Nc3cccc(-c4cccc(C)c4)c3)c2cc1OCC` belongs > 10000 nM; to `COc1cc2c(Nc3cccc(-c4csc(C)n4)c3)ncnc2cc1OC1CCCC1`, > 10000 nM.
On to `CCOc1cc2nc(Cc3ccccc3)nc(Nc3cccc(-c4csc(C)n4)c3)c2cc1OCC`, for which the half-maximal inhibitory concentration (IC50) was > 10000 nM.
To `CCOc1cc2ncnc(Nc3cc(-c4csc(C)n4)ccc3C)c2cc1OCC` belongs 1800 nM; to `CCOc1cc2nc(CC(=O)O)nc(Nc3cccc(-c4csc(C)n4)c3)c2cc1OCC`, 960 nM; to `Cc1nc(-c2cccc(Nc3ncnc4ccccc34)c2)cs1`, > 10000 nM.
Under `CCOc1cc2nc(CCN)nc(Nc3cccc(-c4csc(C)n4)c3)c2cc1OCC` stands 220 nM; under `CCOc1cc2ncnc(Nc3cccc(-c4nc(C(N)=O)cs4)c3)c2cc1OCC`, 830 nM; under `CCOc1cc2nc(C(C)C)nc(Nc3cccc(-c4csc(C)n4)c3)c2cc1OCC`, 5000 nM.
Under `CCOc1cc2ncnc(Nc3cc(-c4csc(C)n4)ccc3Cl)c2cc1OCC` stands 1700 nM.
As to `CCOc1cc2ncnc(Nc3cc(-c4csc(C)n4)ccc3F)c2cc1OCC`, the half-maximal inhibitory concentration (IC50) was 480 nM.
As for `CCOc1cc2ncnc(Nc3cccc(-c4csc(NC)n4)c3)c2cc1OCC`, the IC50 amounted to 800 nM.
Under `CCOc1cc2ncnc(Nc3cc(-c4csc(C)n4)ccc3CC)c2cc1OCC` stands 2100 nM.
To `CCOc1cc2ncnc(Nc3ccc(F)c(-c4csc(C)n4)c3)c2cc1OCC` belongs 610 nM.
To `CCOc1cc2c(Nc3cccc(-c4csc(C)n4)c3)ncnc2cc1OC(C)C` belongs 420 nM; to `CCOc1cc2ncnc(Nc3cccc(-c4csc(COC)n4)c3)c2cc1OCC`, 7300 nM.
Regarding `CCOc1cc2ncnc(Nc3cc(-c4csc(C)n4)ccc3OC)c2cc1OCC`, the IC50 is 990 nM.
To `CCOc1cc2ncnc(Nc3ccc(F)c(-c4csc(C)n4)c3F)c2cc1OCC` belongs > 10000 nM.
